Data from publication PMC7671475 (Journal of Inflammation Research, 2020).

The compounds below were run against Syk (spleen tyrosine kinase) (Homo sapiens, UniProt P43405) (assay: ADP-Glo kinase assay with Promega Syk Kinase Enzyme System).
Type: biochemical

In order of falling IC50:
1. O=c1cc(-c2ccc(O)cc2)oc2c([C@@H]3O[C@H](CO)[C@@H](O)[C@H](O)[C@H]3O)c(O)c([C@@H]3O[C@H](CO)[C@@H](O)[C@H](O)[C@H]3O)c(O)c12 [Vic-2, vicenin-2]  284 nM
2. CC1=CC(=O)CC(C)(C)[C@@]1(O)/C=C/[C@@H](C)O[C@@H]1O[C@H](CO)[C@@H](O)[C@H](O)[C@H]1O [RosS, roseoside]  160 nM
3. O=C(/C=C/c1ccc(O)c(O)c1)O[C@H](Cc1ccc(O)c(O)c1)C(=O)O [RosA, rosmarinic acid]  114 nM
